Assay results: patent US11733246B2, “Compositions, imaging, and therapeutic methods targeting folate receptor 1 (FOLR1)” (Indi Molecular, Inc., priority 2020, dated 2023)
Like-named read-outs stand apart in the source and are kept apart here. One block for each compound: values may come before it. Numbered stars: 1 amine (or outer) side, 2 acyl side, 3 side chain; on linkers, the order of the positions; unused ones are H or OH. Bridge positions count the residues as written; N and C are the ends. Square brackets hold non-standard residues; d marks the D form. Triazole bridges read from a SMILES are 1,4-linked. Peptide text beside a SMILES is read from it. * marks the point of attachment. DOTA = O=C(O)CN1CCN(CC(=O)O)CCN(CC(=O)*)CCN(CC(=O)O)CC1; Pteroyl = Nc1nc2ncc(CNc3ccc(C(=O)*)cc3)nc2c(=O)[nH]1; Biotin = O=C1N[C@H]2[C@H](CS[C@H]2CCCCC(=O)*)N1; Butanoyl(4-(4-I-phenyl)) = O=C(CCCc1ccc(I)cc1)*; PEG10 = NCCOCCOCCOCCOCCOCCOCCOCCOCCOCCOCCC(=O)O; Lys(N3) = [N-]=[N+]=NCCCC[C@H](N)C(=O)O; γGlu = O=C(O)[C@H](CCC(=O)[*:2])N[*:1]; AEEEA = NCCOCCOCCOCC(=O)O; Pra = C#CC[C@H](N)C(=O)O

How the values were obtained:
FOLR1 [1] = target: T1, FOLR1 (Homo sapiens, UniProt P15328); experiment: ELISA assay of FOLR1 binding
T1 construct: His; purchased SinoBiological 11241-H08H
Excerpt: FIG. 5 is a diagram of ELISA assay of FOLR1 binding of heterobiligands.
Nonclinical studies were first conducted with Folate-hshta-PEG10-PEG10-K(Biotin), where Folate-hshta is the targeting heterobiligand, PEG10 is a deca(ethylene glycol) linker, and K(Biotin) is the detection label.

PC3 FOLR1− cells = experiment: Flow cytometry binding to FOLR1 (−) cells; assay type: cell-based, human
Method: (§1) Both the kyeet (SEQ ID NO:9) and hshta (SEQ ID NO:6)-derived biligands were tested by flow cytometry for binding to FOLR1 (+) and FOLR1 (−) cell lines (FIGS. 6 and 7). The human ovarian adenocarcinoma-derived cell line OVCAR3 has robust FOLR1 expression and was selected as the FOLR1 (+) cell line. The human prostate adenocarcinoma-derived cell line PC-3 was selected as a FOLR1 (−) cell line.

OVCAR3 FOLR1+ cells = experiment: Flow cytometry binding to FOLR1 (+) cells; assay type: cell-based, human
Method: as §1
Competition at the cellular level was also probed.
Increasing the serum-bound fraction of the peptide may decrease first pass removal of the heterobiligand, and drive compound retention of tumor over kidney. Constructs bearing the known albumin binder 4-methylphenyl butyric acid (4-MPBA) were synthesized. These compounds were evaluated in vitro to verify binding fidelity to FOLR1. The modified heterobiligands were incubated at 400 nM with OVCAR3 and PC-3 cells for 20 minutes at 37° C. in complete media containing 20% FBS. They both bind to OVCAR3 FOLR1+ cells with similar binding affinities as the original heterobiligand studied (FIG. 14). […] Similar activity of these heterobiligands is anticipated in vivo.

OVCAR3 cells = experiment: Cell internalization assay (acid wash, flow cytometry); assay type: cell-based, human
Method: FIG. 10 is a diagram of an assay for assessing cell internalization FOLR1 heterobiligands.
The folate-hshta (SEQ ID NO:6) Nterm heterobiligand was also evaluated in cell penetration imaging assays (FIG. 10). OVCAR3 and PC-3 cells were incubated with the test article at 37° C. for 1 hour. Flow cytometry analysis of the resulting treated cells indicated strong binding to FOLR1 (+) cells. To understand the proportion bound to the surface but not internalized, the cells were briefly washed with acid to liberate the non-internalized peptide.
(§2) Nonclinical studies were first conducted with Folate-hshta-PEG10-PEG10-K(Biotin), where Folate-hshta is the targeting heterobiligand, PEG10 is a deca(ethylene glycol) linker, and K(Biotin) is the detection label. […] Cross reactivity with the murine folate receptor was also observed. […] In the merged image, purple puncta were observed indicating co-localization of internalized heterobiligand with early endosomes (Rab5a+ vesicles) in OVCAR3 cells.

FOLR1 [2] = target: T1, FOLR1; experiment: Competition ELISA with folic acid; assay type: binding
Method: A competition experiment was conducted to further understand the binding kinetics of the lead heterobiligand (folate-hshta (SEQ ID NO:6) Nterm heterobiligand).
as §2

[3] = target: mouse recombinant FOLR1 (rMuFOLR1) (Mus musculus, UniProt P35846); experiment: ELISA binding to mouse recombinant FOLR1
Excerpt: Further evaluation of the folate-hshta (SEQ ID NO:6) Nterm heterobiligand depended on cross reactivity with mouse recombinant FOLR1 (rMuFOLR1). The heterobiligand binds to both species' variants of FOLR1 with high affinity. This observation was expected given the high homology between the two variants (approximately 92%).

human plasma proteins = experiment: Plasma protein binding (equilibrium dialysis), human; assay type: in vitro ADME; details: human, plasma
Method: (§3) HTD 96 a/b regenerated cellulose membrane strips with mass cutoff of 12-14 kDa were soaked in ultra-pure water at room temperature for 1 hour. Each swelled membrane was then soaked in 20:80 ethanol:water for 20 minutes.
(§4) Just prior to the experiment, the membranes were re-soaked in ultra-pure water. Plasma was prepared by thawing under cold water. The plasma was centrifuged to remove any clots and pH was adjusted to 7.0-8.0. Test articles and control compounds were diluted to 2 μM. The dialysis device was loaded by transferring 150 μL of the test article (in triplicate) to the donor side. The dialysis device was placed in a humidified incubator at 37° C. with 5% CO2 in a shaking platform that rotated slowly for 4 hours. After incubation, 50 μL of the supernatant was taken from both sides and analyzed by LC-MS/MS.
(§5) To optimize the albumin binding potential of the heterobiligand, a plasma protein binding (PPB) experiment was performed. This experiment measured the amount of test article bound and free after equilibrating with plasma. Compound #6305 (folate-hshta-Lys(MPBA)-Gly-Phe-Lys(DOTA) (SEQ ID NO:6)), which contains the MPBA albumin binder, was 96.26% bound to mouse plasma and 98.34% bound to human plasma. […] In mouse and human plasmas 99.6% and 99.5% was bound, respectively.

[4] = as above; assay type: in vitro ADME
Method: as §3, §4, §5

mouse plasma proteins = experiment: Plasma protein binding (equilibrium dialysis), mouse; assay type: in vitro ADME, CD-1 mouse; details: mouse, plasma
Method: as §3, §4, §5

[5] = as above; assay type: in vitro ADME, CD-1 mouse
Method: as §3, §4, §5

human recombinant NEP = human recombinant NEP (Homo sapiens, UniProt P08473); assay type: biochemical
Method: In order to test the susceptibility of GFK and MVK linkers to NEP-mediated cleavage, the peptide (Folate-hshta-Lys(MPBA)-Gly-Phe-Lys(DOTA) (SEQ ID NO:6)) was incubated with human recombinant NEP and analyzed the solution for the presence of cleaved adducts. MALDI was utilized to monitor the cleavage of a PCC heterobiligand that contains a NEP protease recognizable sequence (G-F-K). The PCC concentration was constant and the NEP concentration was titrated down from 10 nM to 1 nM, 0.1 nM, 0.01 nM, and no NEP. The NEP-mediated cleaved adduct was identified by mass. 10 μM PCC containing the GFK linker was combined with varying amounts of NEP. […] Below 0.1 nM no cleavage was observed. • Folate-hshta-Lys(MPBA)-Gly-Phe-Lys(DOTA) (SEQ ID NO:6) • Molecular weight 2231.42
The NEP-mediated cleavage was also monitored by HPLC. In agreement with the MALDI spectra, the HPLC chromatograms show depletion of the parent brush-border heterobiligand (retention time 17.1 minutes), dose-dependent on the amount of NEP spiked into the sample (10 nM, 1 nM, 0.1 nM, 0.01 nM, and no NEP). An appearance of a new peak (retention time 16.5 minutes) in concert with the depletion of the starting material is presumed to be the cleaved folate-containing peptide.
In order to test the specificity of NEP, a non-cleavable linker (PEG3) was also assayed.
To reduce the radioactive dose to the kidney, Indi ^177Lu-7327 was constructed to incorporate a GFK linker that is susceptible to cleavage by enzymes found predominately in the kidney's brush border. These enzymes cleave off the radionuclide-chelator complex, which is quickly eliminated by the kidney for excretion in the urine. The zinc metalloprotease neprilysin (NEP) is expressed with high abundance in the kidney. […] To confirm NEP-mediated cleavage of the GFK linker in Indi 7327, the peptide was incubated with recombinant human NEP at 37° C. for 1 h and analyzed by matrix-assisted laser desorption/ionization mass spectrometry (MALDI-MS) for the evolution of cleaved adducts (FIG. 42). […] The expected cleaved adduct (mass: 1283.16 m/z) appears in the samples containing 10, 1.0, and 0.1 nM NEP. […] Below 0.1 nM NEP, no cleavage was observed. In addition to confirming the selectivity of NEP for the GFK linker, it is also important to note that the remaining portions of the Indi 7327 were impervious to the enzyme.

in vitro [6] = details: CD-1, mouse, plasma, pH 7.4, Plasma Stability (t 1/2)
Method: (§6) Plasma was thawed in a 37° C. water bath. Residual clots were removed via centrifugation at 4000 rpm for 5 minutes. The pH of the plasma was adjusted to 7.4 if required. Test articles were diluted to 100 μM by diluting a 1 mM working solution (in DMSO) with 45% methanol in water. To 98 μL of plasma was added 2 μL of the 100 μM solution, resulting in 2 μM final concentration of the test article. Samples were incubated at 37° C. in a water bath. At the indicated time points (0, 10, 30, 60, 120 minutes) 100 μL of 4% H3PO4 was added followed by 800 μL of stop solution (200 ng/mL tolbutamide and 200 ng/mL labetalol in 100% acetonitrile). The samples were centrifuged and the plasma protein-free supernatant (100 μL) was subjected to LC-MS/MS analysis.

in vitro [7] = details: human, plasma, pH 7.4, Plasma Stability (t 1/2)
Method: as §6

T1 sequence (P15328 25-234): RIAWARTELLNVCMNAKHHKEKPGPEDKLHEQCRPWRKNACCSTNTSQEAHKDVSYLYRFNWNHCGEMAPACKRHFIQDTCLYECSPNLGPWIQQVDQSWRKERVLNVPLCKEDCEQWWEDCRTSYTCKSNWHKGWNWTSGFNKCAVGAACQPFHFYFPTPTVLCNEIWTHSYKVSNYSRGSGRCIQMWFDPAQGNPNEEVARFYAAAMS
Chain of human recombinant NEP (P08473 whole entry): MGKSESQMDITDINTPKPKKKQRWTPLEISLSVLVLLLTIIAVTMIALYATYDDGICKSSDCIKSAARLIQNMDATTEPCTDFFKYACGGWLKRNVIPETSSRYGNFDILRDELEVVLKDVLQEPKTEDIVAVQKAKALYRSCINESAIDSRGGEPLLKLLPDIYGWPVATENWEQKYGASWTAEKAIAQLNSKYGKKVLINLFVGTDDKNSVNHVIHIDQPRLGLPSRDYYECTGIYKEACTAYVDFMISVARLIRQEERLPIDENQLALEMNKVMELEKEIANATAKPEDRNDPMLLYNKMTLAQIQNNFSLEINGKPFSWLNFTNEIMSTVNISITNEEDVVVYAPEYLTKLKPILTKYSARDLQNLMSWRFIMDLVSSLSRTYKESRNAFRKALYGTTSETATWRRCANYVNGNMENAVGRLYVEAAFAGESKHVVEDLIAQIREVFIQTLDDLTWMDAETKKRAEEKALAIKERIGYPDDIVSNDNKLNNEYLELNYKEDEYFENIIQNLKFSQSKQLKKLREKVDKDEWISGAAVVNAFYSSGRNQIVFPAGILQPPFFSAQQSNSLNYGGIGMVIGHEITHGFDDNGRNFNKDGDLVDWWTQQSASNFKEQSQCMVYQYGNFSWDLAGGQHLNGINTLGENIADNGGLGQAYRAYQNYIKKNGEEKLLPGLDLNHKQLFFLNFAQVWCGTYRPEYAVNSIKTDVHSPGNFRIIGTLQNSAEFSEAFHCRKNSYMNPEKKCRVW
Chain of mouse recombinant FOLR1 (rMuFOLR1) (P35846 25-232): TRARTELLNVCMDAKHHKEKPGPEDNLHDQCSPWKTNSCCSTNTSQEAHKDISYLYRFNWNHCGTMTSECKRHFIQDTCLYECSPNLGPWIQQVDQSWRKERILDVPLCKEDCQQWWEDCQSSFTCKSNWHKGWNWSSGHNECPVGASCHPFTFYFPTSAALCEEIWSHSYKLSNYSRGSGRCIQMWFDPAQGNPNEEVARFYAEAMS

- affinity relative to folate itself (FOLR1 [1]; ELISA): ~30 fold
- binding affinity of the heterobiligand in presence of folic acid (FOLR1 [2]; folic acid from 0 to 500 nM): virtually unchanged
- competition by folic acid (FOLR1 [2]; folic acid greater than 500 nM): partially compete away
SMILES: C[C@H](O)[C@H]1NC(=O)[C@@H](Cc2c[nH]cn2)NC(=O)[C@@H](CO)NC(=O)[C@@H](Cc2c[nH]cn2)NC(=O)[C@@H](NC(=O)CC[C@H](NC(=O)c2ccc(NCc3cnc4nc(N)[nH]c(=O)c4n3)cc2)C(=O)O)Cc2cn(nn2)CCCC[C@@H](C(=O)NCCOCCOCCOCCOCCOCCOCCOCCOCCOCCOCCC(=O)NCCOCCOCCOCCOCCOCCOCCOCCOCCOCCOCCC(=O)N[C@@H](CCCCNC(=O)CCCC[C@@H]2SC[C@@H]3NC(=O)N[C@@H]32)C(N)=O)NC(=O)[C@@H](C)NC1=O [Folate-hshta Nterm, Folate-hshta-PEG10-PEG10-K(Biotin)] ({Pteroyl-γGlu}-[Pra][dH][dS][dH][dT][dA][Lys(N3)][PEG10][PEG10]K(Biotin)-NH2; triazole 1-7)
- binding of PC3 FOLR1− cells (PC3 FOLR1− cells): low non-specific binding
- percentage of OVCAR3 cells binding (OVCAR3 FOLR1+ cells; 0.1 μg/mL folate): 57%
- selectivity for FOLR1 (+) cells over FOLR1 (−) cells (OVCAR3 FOLR1+ cells; OVCAR3 vs PC-3, flow cytometry): high selectivity for FOLR1 (+) cells
- binding against OVCAR3 FOLR1+ cells (OVCAR3 FOLR1+ cells; flow cytometry): Dose-dependent binding
- selectivity compared with commercially available FOLR1 antibody (OVCAR3 FOLR1+ cells; flow cytometry): superior to a commercially available FOLR1 antibody
- binding against OVCAR3 FOLR1+ cells (OVCAR3 FOLR1+ cells; flow cytometry, listed as lead heterobiligand): best binding
- displacement by exogenous folic acid at the cellular level (OVCAR3 FOLR1+ cells; increasing exogenous folic acid, flow cytometry): more resilient to folic acid displacement than biotinylated folic acid
- percentage of OVCAR3 cells binding (OVCAR3 FOLR1+ cells; no folate): 76.6%
- percentage of positively stained cells (OVCAR3 cells; OVCAR3, 37° C. 1 hour, before acid treatment): 73.4%
- percentage of positively stained cells (OVCAR3 cells; OVCAR3, following acid treatment): 54.2%
- displacement by exogenous folate in competitive ELISA (FOLR1 [2]): resilient to displacement by exogenous folate

- EC50 [3]: 2.1 µM
- EC50 (FOLR1 [1]; Human FOLR1, read-out: Ec50): 3.4 µM
- EC50 (FOLR1 [1]; read-out: EC50 (ELISA, FOLR1)): 3.92 µM
SMILES: C[C@H](O)[C@H]1NC(=O)[C@@H](Cc2c[nH]cn2)NC(=O)[C@@H](CO)NC(=O)[C@@H](Cc2c[nH]cn2)NC(=O)[C@@H](NC(=O)COCCOCCOCCNC(=O)CCCC[C@@H]2SC[C@@H]3NC(=O)N[C@@H]32)Cc2cn(nn2)CCCC[C@@H](C(N)=O)NC(=O)[C@@H](C)NC1=O [hshta] ({Biotin-AEEEA}-[Pra][dH][dS][dH][dT][dA][Lys(N3)]-NH2; triazole 1-7)

SMILES: C[C@H](O)[C@H]1NC(=O)[C@@H](Cc2c[nH]cn2)NC(=O)[C@@H](CO)NC(=O)[C@@H](Cc2c[nH]cn2)NC(=O)[C@@H](NC(=O)CC[C@H](NC(=O)c2ccc(NCc3cnc4nc(N)[nH]c(=O)c4n3)cc2)C(=O)O)Cc2cn(nn2)CCCC[C@@H](C(=O)N[C@@H](CCCCNC(=O)CCCc2ccc(I)cc2)C(=O)NCC(=O)N[C@@H](Cc2ccccc2)C(=O)N[C@@H](CCCCNC(=O)CN2CCN(CC(=O)O)CCN(CC(=O)O)CCN(CC(=O)O)CC2)C(=O)O)NC(=O)[C@@H](C)NC1=O [compound #1307, Fol-hshta-Lys(4-IPBA)-Gly-Phe-Lys(DOTA)] ({Pteroyl-γGlu}-[Pra][dH][dS][dH][dT][dA][Lys(N3)]K(Butanoyl(4-(4-I-phenyl)))GFK(DOTA)-OH; triazole 1-7)
- Plasma % Bound (human plasma proteins): Hu: 99.50%
- recovery [4]: 84.4%
- Plasma % Bound (mouse plasma proteins): Mu: 99.60%
- recovery [5]: 87.7%
- in vitro Assay Data (NEP assay) (human recombinant NEP): Cleavage of -G-F-K-

SMILES: C[C@H](O)[C@H]1NC(=O)[C@@H](Cc2cnc[nH]2)NC(=O)[C@@H](CO)NC(=O)[C@@H](Cc2cnc[nH]2)NC(=O)[C@@H](NC(=O)CC[C@H](NC(=O)c2ccc(NCc3cnc4nc(N)[nH]c(=O)c4n3)cc2)C(=O)O)Cc2cn(nn2)CCCC[C@@H](C(=O)NCC(=O)N[C@@H](Cc2ccccc2)C(=O)N[C@@H](CCCCNC(=O)CN2CCN(CC(=O)O)CCN(CC(=O)O)CCN(CC(=O)O)CC2)C(=O)O)NC(=O)[C@@H](C)NC1=O [compound #7327, Fol-hshta-Gly-Phe-Lys(DOTA)] ({Pteroyl-γGlu}-[Pra][dH][dS][dH][dT][dA][Lys(N3)]GFK(DOTA)-OH; triazole 1-7)
- half-life at 2 μM (in vitro [6]): > 115 h
- recovery at 4 h, 2 μM ([4]; human): 113%
- fraction unbound at 4 h, 2 μM ([4]; human, plasma): 0.597
- recovery at 4 h, 2 μM ([5]; CD-1, mouse): 102%
- fraction unbound at 4 h, 2 μM ([5]; CD-1, mouse, plasma): 0.591
- half-life at 2 μM (in vitro [7]): > 115 h
- in vitro Assay Data (NEP assay) (human recombinant NEP): Cleavage of -G-F-K-
